Assay results reported in patent EP0115547B1 (priority 1983, dated 1984).

Test system: T7-Phagen
Settings: pH 7

SMILES: CS(=O)(=O)OCCNCC(O)C(O)CNCCOS(C)(=O)=O (stereo not shown) [1,4-Di-{2'-(methylsulfonyl)-oxy-äthylamino}-1,4-di-{desoxy}-ery-thrit-dimethylsulfat]
- Kehrwert der pyrimidin-dimeräquivalenten Dosis: 111 1 Mol . Minute

SMILES: CN(Cc1cnc2nc(N)nc(N)c2n1)c1ccc(C(=O)N[C@@H](CCC(=O)O)C(=O)O)cc1 [4-Desoxy-4-amino-10-methylfolsäure]
- Kehrwert der pyrimidin-dimeräquivalenten Dosis: 11 1 Mol . Minute

SMILES: CC(=O)N1CC1 [N-(Acetyl)-äthylenimin]
- Kehrwert der pyrimidin-dimeräquivalenten Dosis: 33 1 Mol . Minute

SMILES: CN(N=O)C(N)=O [Nitrosomethylharnstoff]
- Kehrwert der pyrimidin-dimeräquivalenten Dosis: 0,76 1 Mol . Minute

SMILES: Cc1ncc(C[n+]2csc(CCO)c2C)c(N)n1 [Vitamin B1]
- 1n [N(t)/N(O)]=-1 zugehörige Bebrütungs- beziehungsweise Inkubationszeit: 291 Minuten
- Kehrwert der pyrimidindimeräquivalenten Dosis: 0,03 l/Mol· Minute
- pyrimidindimeräquivalente Dosis: 29 Mol - Minute/I
